Activity calls are given as the source filed them. The calls are words filed in the database; no cut-off is given here.
Key:
[1] = molecular target: Galectin-9 (Homo sapiens, UniProt O00182); assay: Antagonist activity against human galectin 9 N-terminal domain by fluorescence polarization assay
[2] = molecular target: Galectin-7 (Homo sapiens, UniProt P47929); assay: Antagonist activity against human galectin 7 by fluorescence polarization assay
[3] = molecular target: T1, Galectin-1 (Homo sapiens, UniProt P09382); assay: Antagonist activity against human galectin 1 by fluorescence polarization assay
T1 sequence (P09382 whole entry, the tested form may be a part): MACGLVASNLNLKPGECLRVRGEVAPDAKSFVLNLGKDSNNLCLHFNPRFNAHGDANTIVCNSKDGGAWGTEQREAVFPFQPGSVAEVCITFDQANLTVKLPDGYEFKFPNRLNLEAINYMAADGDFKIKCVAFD

[4] = molecular target: T2, Galectin-8 (Homo sapiens, UniProt O00214); assay: Antagonist activity against human galectin 8 N-terminal domain by fluorescence polarization assay
T2 sequence (O00214 whole entry): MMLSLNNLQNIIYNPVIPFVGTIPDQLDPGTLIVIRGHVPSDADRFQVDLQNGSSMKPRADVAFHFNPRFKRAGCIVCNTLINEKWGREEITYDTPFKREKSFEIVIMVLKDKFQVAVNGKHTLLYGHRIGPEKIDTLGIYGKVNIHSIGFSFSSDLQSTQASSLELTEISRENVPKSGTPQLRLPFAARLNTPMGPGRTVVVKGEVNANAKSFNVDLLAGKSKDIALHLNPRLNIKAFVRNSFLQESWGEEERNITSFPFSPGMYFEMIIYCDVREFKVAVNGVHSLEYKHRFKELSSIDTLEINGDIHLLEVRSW

[5] = molecular target: Galectin-3 (Homo sapiens, UniProt P17931); assay: Antagonist activity against human galectin 3 by fluorescence polarization assay
Sequence of Galectin-3 (P17931 whole entry): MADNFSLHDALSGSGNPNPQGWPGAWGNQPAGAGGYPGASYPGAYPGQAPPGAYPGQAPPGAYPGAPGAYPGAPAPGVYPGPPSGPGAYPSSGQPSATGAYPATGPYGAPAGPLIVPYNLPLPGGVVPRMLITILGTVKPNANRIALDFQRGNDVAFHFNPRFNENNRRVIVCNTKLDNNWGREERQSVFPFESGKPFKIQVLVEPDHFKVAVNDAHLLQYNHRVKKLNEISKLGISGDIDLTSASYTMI

[6] = molecular target: T1, Galectin-1; details: 10 mM
Description: Antagonist activity against human galectin 1 at 10 mM by fluorescence polarization assay

Sequence of Galectin-9 (O00182 whole entry, the tested form may be a part): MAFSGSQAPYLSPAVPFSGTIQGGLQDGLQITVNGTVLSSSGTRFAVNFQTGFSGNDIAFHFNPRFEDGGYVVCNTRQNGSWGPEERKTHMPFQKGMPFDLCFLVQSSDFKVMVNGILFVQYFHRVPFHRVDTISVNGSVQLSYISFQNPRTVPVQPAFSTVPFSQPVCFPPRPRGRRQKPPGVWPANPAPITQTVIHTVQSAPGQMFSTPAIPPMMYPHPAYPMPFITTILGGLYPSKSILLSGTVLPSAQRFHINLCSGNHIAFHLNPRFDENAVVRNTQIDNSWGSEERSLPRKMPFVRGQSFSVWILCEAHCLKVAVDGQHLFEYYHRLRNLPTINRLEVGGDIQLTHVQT
Sequence of Galectin-7 (P47929 whole entry): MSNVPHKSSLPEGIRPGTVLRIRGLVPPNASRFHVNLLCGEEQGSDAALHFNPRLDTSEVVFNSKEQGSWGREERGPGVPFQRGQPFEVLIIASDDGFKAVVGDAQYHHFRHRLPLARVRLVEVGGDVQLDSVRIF

| Structure (SMILES) | Kd [1] [µM] | Kd ([2]; read-out: Kd) [µM] | Kd ([3]; read-out: Kd) [µM] | Kd [4] [µM] | Kd [5] [µM] | Kd [3] | inhibition [6] | Kd [2] |
| --- | --- | --- | --- | --- | --- | --- | --- | --- |
| CO[C@H]1O[C@H](CO)[C@H](O)[C@H](OCc2cc3ccccc3o/c2=N\S(=O)(=O)c2ccccc2)[C@H]1O | 76 | 1100 | 650 | 390 | 81 |  |  |  |
| CO[C@H]1O[C@H](CO)[C@H](O)[C@H](OCc2cc3ccccc3o/c2=N\S(=O)(=O)c2ccc(C)cc2)[C@H]1OC(C)=O | 36 | 180 | 5100 | 170 | 97 |  |  |  |
| CS[C@@H]1O[C@H](CO)[C@H](O)[C@H](NC(=O)c2ccc(C)cc2)[C@H]1O | 1500 | > 2000 | 980 | > 2000 |  |  |  |  |
| CO[C@H]1O[C@H](CO)[C@H](O)[C@H](OCc2cc3ccccc3oc2=O)[C@H]1O | 180 | 850 | 1900 | 180 | 78 |  |  |  |
| CS[C@@H]1O[C@H](CO)[C@H](O)[C@H](n2cc(C(=O)NCc3ccccc3)nn2)[C@H]1O | > 5000 |  |  |  |  | Not Active |  |  |
| CO[C@H]1O[C@H](CO)[C@H](O)[C@H](OCc2cc3ccccc3o/c2=N\S(=O)(=O)c2ccccc2)[C@H]1OC(C)=O | 45 | 230 | 4500 | 270 | 130 |  |  |  |
| CO[C@H]1O[C@H](CO)[C@H](O)[C@H](O)[C@H]1O | 2800 | 11000 |  |  |  |  | inactive |  |
| CO[C@H]1O[C@H](CO)[C@H](O)[C@H](OCc2cc3ccccc3o/c2=N\S(=O)(=O)c2ccc(C)cc2)[C@H]1O | 140 | 1700 | 1700 | 250 | 120 |  |  |  |
| Cc1ccc(S(=O)(=O)/N=c2\oc3ccccc3cc2CO[C@@H]2O[C@H](CO)[C@@H](O[C@@H]3O[C@H](CO)[C@H](O)[C@H](O)[C@H]3O)[C@H](O)[C@H]2O)cc1 | 80 |  | 500 | 140 | 130 |  |  | Not Active |
| Cc1ccc(S(=O)(=O)/N=c2\oc3ccccc3cc2CO[C@@H]2O[C@H](CO)[C@H](O)[C@H](O)[C@H]2O)cc1 | 7100 |  | 3600 | 3900 | 10000 |  |  | Not Active |
| CO[C@@H]1O[C@H](CO)[C@@H](O[C@@H]2O[C@H](CO)[C@H](O)[C@H](O)[C@H]2O)[C@H](O)[C@H]1O | 23 | 110 | 190 | 62 | 220 |  |  |  |

Reference: ChEMBL document CHEMBL3351844, “Synthesis and evaluation of iminocoumaryl and coumaryl derivatized glycosides as galectin antagonists” (Bioorg Med Chem Lett, 2014)
